# Experimental data: patent US20250270707A1, “NON-TRIAZOLE IMIDAZOLINE AND AMIDE COMPOUNDS AND METHODS FOR INHIBITING CORROSION IN INDUSTRIAL WATER TREATMENT” (CHEMTREAT, INC., priority 2023, published 2025)
# Experiments:
# [1] = Control normalized Cl2 demand over time (Example 3, FIG. 3); type: physicochemical; conditions: 1 ppm; compared to 50% sodium glucoheptonate (10 ppm)
# Text: One liter samples of the synthetic water described above with respect to Example 1 were each dosed with the compositions in Table 7 and processed under conditions similar to Example 1.
# [2] = Cl2 demand in the corrosion cell test (Examples 1 and 2); type: physicochemical
# Method: (§1) One liter samples of synthetic water were each dosed with the compositions in Table 1.
# (§2) The apparatus used for the corrosion testing was a Gamry Multiport Corrosion Cell and Gamry Reference 600+potentiostat with multiplexor. Copper coupons (CDA110) were added to the sample cells containing neutral water (pH 7.5), and the cells were dosed with 50 ppm of scale inhibitor (co-polymer and 2-phosphonobutane-1,2,4-yricarboxylic acid) and heated to 50° C. and maintained at this temperature throughout the testing. The cells were continuously stirred at a speed of 350 rpm. A cylindrical working electrode was submerged into the test solutions, and an LPR sweep (linear polarization resistance) was performed every hour for 18 hours. After the 0.5 hrs mark, 1 ppm of free chlorine was dosed into the corrosion cell.
# (§3) One liter samples of the synthetic water described above with respect to Example 1 were each dosed with the compositions in Table 5 and processed under conditions similar to Example 1.
# [3] = Corrosion rate by LPR sweep, copper coupons in synthetic water, 50° C., 1 ppm free chlorine after 0.5 hrs (Examples 1 and 2)
# Method: as §1, §2, §3
substance,measurement,setting,value
sodium dicarboxylethyl coco phosphoethyl imidazoline [SDCPI],control normalized C12 demand over time (in words),[1],did not result in significant loss of C12 demand
same,Cl2 Demand,[2]; 1 ppm,0.3 mg/L
same,Cl2 Demand,[2]; 2 ppm,0.9 mg/L
same,Cl2 Demand,[2]; 3 ppm,0.8 mg/L
same,CR Average (10-18 hrs),[3]; 1 ppm,0.224 mpy
same,CR Peak,[3]; 1 ppm,0.279 mpy
same,corrosion rate,"[3]; 1 ppm, 0 hrs",0.025 mpy
same,corrosion rate,"[3]; 1 ppm, 1 hrs",0.279 mpy
same,corrosion rate,"[3]; 1 ppm, 2 hrs",0.252 mpy
same,corrosion rate,"[3]; 1 ppm, 3 hrs",0.257 mpy
same,corrosion rate,"[3]; 1 ppm, 4 hrs",0.245 mpy
same,corrosion rate,"[3]; 1 ppm, 5 hrs",0.214 mpy
same,corrosion rate,"[3]; 1 ppm, 6 hrs",0.200 mpy
same,corrosion rate,"[3]; 1 ppm, 7 hrs",0.184 mpy
same,corrosion rate,"[3]; 1 ppm, 8 hrs",0.175 mpy
same,corrosion rate,"[3]; 1 ppm, 9 hrs",0.174 mpy
same,corrosion rate,"[3]; 1 ppm, 10 hrs",0.182 mpy
same,corrosion rate,"[3]; 1 ppm, 11 hrs",0.197 mpy
same,corrosion rate,"[3]; 1 ppm, 12 hrs",0.213 mpy
same,corrosion rate,"[3]; 1 ppm, 13 hrs",0.226 mpy
same,corrosion rate,"[3]; 1 ppm, 14 hrs",0.240 mpy
same,corrosion rate,"[3]; 1 ppm, 15 hrs",0.247 mpy
same,corrosion rate,"[3]; 1 ppm, 16 hrs",0.249 mpy
same,corrosion rate,"[3]; 1 ppm, 17 hrs",0.241 mpy
same,corrosion rate,"[3]; 1 ppm, 18 hrs",0.226 mpy
same,CR Average (10-18 hrs),[3]; 2 ppm,0.013 mpy
same,CR Peak,[3]; 2 ppm,0.092 mpy
same,corrosion rate,"[3]; 2 ppm, 0 hrs",0.0168 mpy
same,corrosion rate,"[3]; 2 ppm, 1 hrs",0.0923 mpy
same,corrosion rate,"[3]; 2 ppm, 2 hrs",0.0637 mpy
same,corrosion rate,"[3]; 2 ppm, 3 hrs",0.0529 mpy
same,corrosion rate,"[3]; 2 ppm, 4 hrs",0.0240 mpy
same,corrosion rate,"[3]; 2 ppm, 5 hrs",0.0173 mpy
same,corrosion rate,"[3]; 2 ppm, 6 hrs",0.0164 mpy
same,corrosion rate,"[3]; 2 ppm, 7 hrs",0.0167 mpy
same,corrosion rate,"[3]; 2 ppm, 8 hrs",0.0171 mpy
same,corrosion rate,"[3]; 2 ppm, 9 hrs",0.0179 mpy
same,corrosion rate,"[3]; 2 ppm, 10 hrs",0.0165 mpy
same,corrosion rate,"[3]; 2 ppm, 11 hrs",0.0151 mpy
same,corrosion rate,"[3]; 2 ppm, 12 hrs",0.0139 mpy
same,corrosion rate,"[3]; 2 ppm, 13 hrs",0.0133 mpy
same,corrosion rate,"[3]; 2 ppm, 14 hrs",0.0127 mpy
same,corrosion rate,"[3]; 2 ppm, 15 hrs",0.0117 mpy
same,corrosion rate,"[3]; 2 ppm, 16 hrs",0.0116 mpy
same,corrosion rate,"[3]; 2 ppm, 17 hrs",0.0113 mpy
same,corrosion rate,"[3]; 2 ppm, 18 hrs",0.0103 mpy
same,CR Average (10-18 hrs),[3]; 3 ppm,0.042 mpy
same,CR Peak,[3]; 3 ppm,0.053 mpy
same,corrosion rate,"[3]; 3 ppm, 0 hrs",0.013 mpy
same,corrosion rate,"[3]; 3 ppm, 1 hrs",0.053 mpy
same,corrosion rate,"[3]; 3 ppm, 2 hrs",0.039 mpy
same,corrosion rate,"[3]; 3 ppm, 3 hrs",0.043 mpy
same,corrosion rate,"[3]; 3 ppm, 4 hrs",0.042 mpy
same,corrosion rate,"[3]; 3 ppm, 5 hrs",0.042 mpy
same,corrosion rate,"[3]; 3 ppm, 6 hrs",0.044 mpy
same,corrosion rate,"[3]; 3 ppm, 7 hrs",0.044 mpy
same,corrosion rate,"[3]; 3 ppm, 8 hrs",0.044 mpy
same,corrosion rate,"[3]; 3 ppm, 9 hrs",0.046 mpy
same,corrosion rate,"[3]; 3 ppm, 10 hrs",0.046 mpy
same,corrosion rate,"[3]; 3 ppm, 11 hrs",0.046 mpy
same,corrosion rate,"[3]; 3 ppm, 12 hrs",0.044 mpy
same,corrosion rate,"[3]; 3 ppm, 13 hrs",0.043 mpy
same,corrosion rate,"[3]; 3 ppm, 14 hrs",0.042 mpy
same,corrosion rate,"[3]; 3 ppm, 15 hrs",0.041 mpy
same,corrosion rate,"[3]; 3 ppm, 16 hrs",0.040 mpy
same,corrosion rate,"[3]; 3 ppm, 17 hrs",0.039 mpy
same,corrosion rate,"[3]; 3 ppm, 18 hrs",0.038 mpy
same,corrosion inhibition properties over the entire 18 hour period (in words),"[3]; Example 2, 2 ppm",good corrosion inhibition properties
Disodium Coco Imidazoline Dicarboxylate [DCIMDCC],Cl2 Demand,[2]; 2 ppm,0.9 mg/L
same,CR Average (10-18 hrs),[3]; 2 ppm,0.025 mpy
same,CR Peak,[3]; 2 ppm,0.267 mpy
same,corrosion rate,"[3]; 2 ppm, 0 hrs",0.0395 mpy
same,corrosion rate,"[3]; 2 ppm, 1 hrs",0.2665 mpy
same,corrosion rate,"[3]; 2 ppm, 2 hrs",0.1537 mpy
same,corrosion rate,"[3]; 2 ppm, 3 hrs",0.0908 mpy
same,corrosion rate,"[3]; 2 ppm, 4 hrs",0.0856 mpy
same,corrosion rate,"[3]; 2 ppm, 5 hrs",0.0744 mpy
same,corrosion rate,"[3]; 2 ppm, 6 hrs",0.0600 mpy
same,corrosion rate,"[3]; 2 ppm, 7 hrs",0.0499 mpy
same,corrosion rate,"[3]; 2 ppm, 8 hrs",0.0409 mpy
same,corrosion rate,"[3]; 2 ppm, 9 hrs",0.0375 mpy
same,corrosion rate,"[3]; 2 ppm, 10 hrs",0.0339 mpy
same,corrosion rate,"[3]; 2 ppm, 11 hrs",0.0313 mpy
same,corrosion rate,"[3]; 2 ppm, 12 hrs",0.0283 mpy
same,corrosion rate,"[3]; 2 ppm, 13 hrs",0.0266 mpy
same,corrosion rate,"[3]; 2 ppm, 14 hrs",0.0243 mpy
same,corrosion rate,"[3]; 2 ppm, 15 hrs",0.0224 mpy
same,corrosion rate,"[3]; 2 ppm, 16 hrs",0.0209 mpy
same,corrosion rate,"[3]; 2 ppm, 17 hrs",0.0196 mpy
same,corrosion rate,"[3]; 2 ppm, 18 hrs",0.0188 mpy
